pIC50: −log10 of the molar value.
How the values were obtained:
Format in all cases: cell-based
[1] = target: T1, αMβ2 (Homo sapiens, UniProt P05107+P11215); experiment: JY/αMβ2 cell adhesion to iC3b; conditions: PMA-treated JY cells
T1 construct: expressed in transfected cells; host or cells: JY (human B lymphoblastoid) cells
Protocol: (§1) To assess the selectivity of each compound, an IC50 value was determined for additional binding partner compounds JY/αVβ3 and vitronectin, JY/α4β1 and VCAM/Ig, JY/αdβ2 and VCAM, JY/[…] and ICAM-1, JY/αMβ2 and iC3b, and JY/α4β7 and MAdCAM-1.
(§2) For each IC50 assay, 50 μl of the ligand diluted in 50 mM bicarbonate buffer (pH 9.6) was dispensed per well of an Immulon-4 plate. A single plate was used to test two different ligands, each in triplicate, The coating concentration for the various ligands was as follows: VCAM-1/Ig at 2.0 μg/ml; ICAM-1/Ig at 5.0 μg/ml; vitronectin at 0.5 μg/ml; MAdCAM-1/Ig at 3.0 μg/ml, and iC3b at 5.0 μg/ml. The capture antibody, e.g. anti-CD18 monoclonal antibody TS1/22, was added at a concentration of 10 μg/ml in 50 μl/well. Ligand-coated plates were covered and stored overnight at 4° C. The following day, the contents of each well was decanted, and each plate was washed three times with 200 μl/well D-PBS. The plate was then blocked by the addition of 300 μl/well of 1% BSA/D-PBS solution. Each plate was again covered and incubated at room temperature for at least 1 hour.
(§3) Prior to transfer to the adhesion plate, the compounds were initially diluted by transferring 4.2 μl of the diluted compounds to a 96-well deepwell titer plate containing 0.7 ml/well of RPMI 1640, 0.1% BSA, and 3 ng/ml PMA (Sigma Corp., St. Louis, Mo.) pre-warmed to 37° C. The 1% BSA/D-PBS blocking solution was decanted from the 96-well Immulon-4 plates and replaced with 0.2 ml of diluted compound. […]
(§4) The adhesion assay was initiated by addition of 100 μl of the cell suspension to each well of the Immulon-4 plate. […] Adherent cells were quantitated by determining the absorbance at 570 nm in a plate spectrophotometer. The percentage of cell binding was determined by using the mean values for each triplicate in a given assay and the formula below. […]
(§5) The four compounds Cmpd K, Cmpd W, Cmpd Z, Cmpd D identified in the primary screen were selected for further specificity profiling, whereby their IC50 values were determined in additional integrin-dependent adhesive events. […]

[2] = target: T2, αVβ3 (Homo sapiens, UniProt P05106+P06756); experiment: JY/αVβ3 cell adhesion to vitronectin; conditions: PMA-treated JY cells; read-out: VN αVβ3 IC50
T2 construct: endogenous in cells; host or cells: JY cells
Protocol: as §1, §2, §3, §4, §5

[3] = target: T3, αdβ2 (Homo sapiens, UniProt P05107+Q13349); experiment: JY/αdβ2 cell adhesion to VCAM; conditions: PMA-treated JY cells
T3 construct: expressed in transfected cells; host or cells: JY cells, plasmid pMHneo/aD
Protocol: as §1, §2
(§6) Prior to transfer to the adhesion plate, the compounds were initially diluted by transferring 4.2 μl of the diluted compounds to a 96-well deepwell titer plate containing 0.7 ml/well of RPMI 1640, 0.1% BSA, and 3 ng/ml PMA (Sigma Corp., St. Louis, Mo.) pre-warmed to 37° C. The 1% BSA/D-PBS blocking solution was decanted from the 96-well Immulon-4 plates and replaced with 0.2 ml of diluted compound. For each 96-well plate to be screened, approximately 8×10^6 cells were collected by centrifugation and resuspended in adhesion media (RPMI 1640 containing 0.1% BSA) to a final concentration of 10^6/ml. To prevent PMA-dependent homotypic aggregation in the adhesion assay, the anti-CD18 antibody 22F12C (ICOS Corp., Bothell, Wash.) was added to the cell suspensions to a final concentration of 10 μg/ml, and the cells were incubated at 37° C. for 15 min. This antibody was not added to CD18-dependent adhesion assays involving JY/αLβ2, JY/αdβ2 or JY/αMβ2 and their corresponding ligands ICAM-1, VCAM-1, or iC3b.
as §4, §5

[4] = target: α4β1 (Homo sapiens, UniProt P05556+P13612); experiment: JY/α4β1 cell adhesion to VCAM-1/Ig; set-up: host or cells: JY cells; conditions: PMA-treated JY cells
Protocol: as §1, §2, §6, §4, §5

Chain of α4β1 (P13612 34-1032): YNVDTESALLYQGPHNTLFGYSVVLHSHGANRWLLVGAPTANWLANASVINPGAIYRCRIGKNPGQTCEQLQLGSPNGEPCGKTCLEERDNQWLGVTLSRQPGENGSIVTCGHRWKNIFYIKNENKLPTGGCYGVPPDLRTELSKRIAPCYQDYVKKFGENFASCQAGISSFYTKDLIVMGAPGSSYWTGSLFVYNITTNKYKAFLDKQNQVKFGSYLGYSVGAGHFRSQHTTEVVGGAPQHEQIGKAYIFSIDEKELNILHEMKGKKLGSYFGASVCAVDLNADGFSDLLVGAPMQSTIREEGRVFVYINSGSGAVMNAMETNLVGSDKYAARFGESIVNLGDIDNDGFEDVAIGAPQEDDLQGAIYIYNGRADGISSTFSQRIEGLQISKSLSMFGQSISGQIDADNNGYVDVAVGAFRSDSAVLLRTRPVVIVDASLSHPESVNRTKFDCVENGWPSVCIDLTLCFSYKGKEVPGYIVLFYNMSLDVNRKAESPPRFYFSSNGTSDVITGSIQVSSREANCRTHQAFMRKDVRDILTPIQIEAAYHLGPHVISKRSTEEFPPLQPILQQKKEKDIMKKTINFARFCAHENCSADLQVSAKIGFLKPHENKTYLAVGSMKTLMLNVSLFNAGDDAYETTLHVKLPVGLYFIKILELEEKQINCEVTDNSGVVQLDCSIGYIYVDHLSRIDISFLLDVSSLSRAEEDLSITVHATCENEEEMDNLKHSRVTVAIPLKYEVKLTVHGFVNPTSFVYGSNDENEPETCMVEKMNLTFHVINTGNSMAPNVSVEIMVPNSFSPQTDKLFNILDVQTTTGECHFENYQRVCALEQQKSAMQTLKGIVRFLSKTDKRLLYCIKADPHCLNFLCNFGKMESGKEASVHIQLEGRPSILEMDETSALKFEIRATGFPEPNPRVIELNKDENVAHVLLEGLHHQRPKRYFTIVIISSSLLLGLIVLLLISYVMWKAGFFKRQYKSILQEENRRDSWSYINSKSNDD
Chain of α4β1 (P05556 21-798): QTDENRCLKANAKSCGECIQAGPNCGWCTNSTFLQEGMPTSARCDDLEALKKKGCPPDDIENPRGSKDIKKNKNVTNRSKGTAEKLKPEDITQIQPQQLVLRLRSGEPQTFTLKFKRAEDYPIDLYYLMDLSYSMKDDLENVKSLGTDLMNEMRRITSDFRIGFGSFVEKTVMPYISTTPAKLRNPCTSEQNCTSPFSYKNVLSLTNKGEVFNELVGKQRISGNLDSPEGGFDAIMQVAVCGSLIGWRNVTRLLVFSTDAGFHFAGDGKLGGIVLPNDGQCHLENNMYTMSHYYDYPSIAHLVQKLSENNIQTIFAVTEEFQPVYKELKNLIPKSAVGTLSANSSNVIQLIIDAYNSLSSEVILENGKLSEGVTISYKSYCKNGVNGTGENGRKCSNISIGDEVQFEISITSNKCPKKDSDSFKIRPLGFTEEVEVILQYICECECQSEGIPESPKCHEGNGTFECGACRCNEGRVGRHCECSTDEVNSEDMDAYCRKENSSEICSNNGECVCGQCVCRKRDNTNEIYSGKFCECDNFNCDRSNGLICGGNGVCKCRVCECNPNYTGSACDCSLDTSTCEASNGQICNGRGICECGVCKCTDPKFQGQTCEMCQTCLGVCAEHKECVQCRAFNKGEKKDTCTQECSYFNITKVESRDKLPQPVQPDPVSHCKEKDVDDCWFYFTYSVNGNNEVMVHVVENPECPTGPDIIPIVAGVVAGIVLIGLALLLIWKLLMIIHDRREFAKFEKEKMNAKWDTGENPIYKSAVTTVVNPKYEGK
T2 sequence (P06756 31-889 limits assumed): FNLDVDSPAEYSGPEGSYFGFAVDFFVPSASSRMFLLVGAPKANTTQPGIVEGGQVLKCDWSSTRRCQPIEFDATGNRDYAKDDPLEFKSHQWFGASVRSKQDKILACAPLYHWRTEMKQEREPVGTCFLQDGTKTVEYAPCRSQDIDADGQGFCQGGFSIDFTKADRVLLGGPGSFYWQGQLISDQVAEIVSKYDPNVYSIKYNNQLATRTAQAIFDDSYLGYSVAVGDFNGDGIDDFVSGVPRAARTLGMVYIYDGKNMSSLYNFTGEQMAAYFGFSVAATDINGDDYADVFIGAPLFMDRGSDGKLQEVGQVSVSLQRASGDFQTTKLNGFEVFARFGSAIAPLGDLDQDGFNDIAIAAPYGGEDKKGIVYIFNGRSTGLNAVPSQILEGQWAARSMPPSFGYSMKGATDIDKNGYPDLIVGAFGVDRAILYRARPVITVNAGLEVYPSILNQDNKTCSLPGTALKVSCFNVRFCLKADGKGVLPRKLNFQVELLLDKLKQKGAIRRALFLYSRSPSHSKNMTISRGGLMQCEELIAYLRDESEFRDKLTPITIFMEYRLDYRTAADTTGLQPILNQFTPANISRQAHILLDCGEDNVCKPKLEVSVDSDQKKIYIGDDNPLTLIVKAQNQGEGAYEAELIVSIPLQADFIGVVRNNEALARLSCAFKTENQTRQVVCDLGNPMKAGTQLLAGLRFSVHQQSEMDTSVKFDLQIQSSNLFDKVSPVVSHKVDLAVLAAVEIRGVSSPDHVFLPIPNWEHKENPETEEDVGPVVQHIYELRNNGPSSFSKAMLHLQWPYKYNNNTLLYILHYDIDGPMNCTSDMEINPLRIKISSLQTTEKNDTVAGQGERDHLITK
T2 sequence (P06756 891-1048 partner limits assumed): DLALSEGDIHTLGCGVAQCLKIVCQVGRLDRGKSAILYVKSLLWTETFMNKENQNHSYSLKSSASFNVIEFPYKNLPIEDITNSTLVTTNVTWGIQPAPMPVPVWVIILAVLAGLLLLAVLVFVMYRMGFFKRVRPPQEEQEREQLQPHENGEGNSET
T2 sequence (P05106 27-788): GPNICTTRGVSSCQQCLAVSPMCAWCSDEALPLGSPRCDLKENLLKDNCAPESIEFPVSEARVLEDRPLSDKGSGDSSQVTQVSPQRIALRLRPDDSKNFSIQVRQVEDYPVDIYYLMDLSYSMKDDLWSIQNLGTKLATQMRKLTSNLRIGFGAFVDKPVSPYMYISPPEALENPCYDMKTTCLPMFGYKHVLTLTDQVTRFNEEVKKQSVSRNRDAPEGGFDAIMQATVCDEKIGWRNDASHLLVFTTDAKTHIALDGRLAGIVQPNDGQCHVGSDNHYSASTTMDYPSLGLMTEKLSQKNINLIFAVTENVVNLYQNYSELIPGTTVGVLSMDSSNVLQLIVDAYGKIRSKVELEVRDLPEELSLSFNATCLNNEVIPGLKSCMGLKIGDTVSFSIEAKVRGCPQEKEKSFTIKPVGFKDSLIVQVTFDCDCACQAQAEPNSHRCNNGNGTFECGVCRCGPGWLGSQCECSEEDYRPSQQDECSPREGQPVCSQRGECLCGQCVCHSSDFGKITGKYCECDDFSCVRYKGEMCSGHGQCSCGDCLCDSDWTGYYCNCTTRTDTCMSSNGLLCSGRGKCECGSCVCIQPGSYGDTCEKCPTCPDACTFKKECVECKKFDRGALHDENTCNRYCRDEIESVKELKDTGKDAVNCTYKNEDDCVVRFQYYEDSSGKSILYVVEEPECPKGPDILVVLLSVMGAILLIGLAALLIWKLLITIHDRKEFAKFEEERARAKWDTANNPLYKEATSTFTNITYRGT

pIC50 [1] | pIC50 [2] | pIC50 [3] | pIC50 [4] | Structure (SMILES)
5.15 | 5.40 | < 4.40 | < 4.40 | CC(=O)Oc1ccccc1C(=O)n1c(-c2ccccc2)cc2ccccc21 [Cmpd D]
5.40 | 5.22 | < 4.40 | < 4.40 | O=C(NCc1cccnc1)c1ccccc1C(=O)Nc1sc2ccccc2c1Cl [Cmpd K]
5.40 | 5.10 | < 4.40 | < 4.40 | Nc1ccc(Sc2ccc(NC(=O)CCc3ccccc3)cc2)c(Cl)c1 [Cmpd W]
 |  | < 4.40 | < 4.40 | CC(CN(C)C)NCc1ccccc1Sc1ccc(C(C)(C)C)cc1 (centres unmarked) [Cmpd Z]

From patent US20030088061A1, “Materials and methods to modulate ligand binding/enzymatic activity of alpha/beta proteins containing an allosteric regulatory site” (priority 2000, published 2003)
